Laboratory results as given in US20240058283A1, “THE MODE OF ACTION OF N-MeDCPA ON TRPC CHANNELS” (West Virginia University Board of Governors on Behalf of …, priority 2022, published 2024).

What was measured:
osteoclasts = conditions: reference 3, cited from earlier work
Serum levels in vivo = assay: Serum levels in vivo
Excerpt: We have extensively investigated inhibitors of the store-operated Ca^2+ entry (SOCE) pathway as a target for control of bone erosion, particularly in the context of arthritis. […] On this basis, we have assessed the possibility that DCPA and/or DCPA analogs might be effective inhibitors of bone erosion in the context of arthritis^6. While this has proven to the case (data not shown), this investigation has opened new questions regarding the true identity of the DCPA target. […] As such, we have assessed the possibility that DCPA and its analogs may have a different target, especially within the context of arthritis.

CCC(=O)Nc1ccc(Cl)c(Cl)c1 [DCPA, 3,4-dichloropropionaniline]
formation of bone degrading osteoclasts (osteoclasts; in vitro): reduced the formation of bone degrading osteoclasts | concentration needed to block osteoclast differentiation (osteoclasts; no block below this concentration): ≥ 100 µM | serum levels (Serum levels in vivo): ≤ 100 nM
